Test results reported in US20220125051A1, “PRE-HARVEST DESICCATION METHOD” (SYNGENTA CROP PROTECTION AG, priority 2019, published 2022).

Columns and labels:
Experiment in all cases: Post-emergence efficacy, Method A
Type in all cases: in vivo
[1] = test system: Digitaria sanguinalis (DIGSA); conditions: Application rate 500 g/Ha, evaluated after 13 days, 100=total damage to plant, 0=no damage to plant; for pest or weed control at 500 g/ha: Digitaria sanguinalis, post-emergence, 312 h, read-out: Control of weed species after post-emergence application, DIGSA
Summary of the method: (§1)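 Sow in standard soil; grow 14 d under glasshouse control (24/16 °C, 14 h light, 65% humidity). Spray post-emergence with compound formulated in acetone/IF50, diluted in Empicol ESC70 (0.25% or 1%) + 1% ammonium sulphate. Return to glasshouse, water twice daily, score at 13 d on a 0–100 damage scale.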

[2] = test system: Ipomoea hederacea (IPOHE); conditions: Application rate 500 g/Ha, evaluated after 13 days, 100=total damage to plant, 0=no damage to plant; for pest or weed control at 500 g/ha: Ipomoea hederacea, post-emergence, 312 h, read-out: Control of weed species after post-emergence application, IPOHE
Summary of the method: as §1

Lolium perenne (LOLPE) = conditions: Application rate 500 g/Ha, evaluated after 13 days, 100=total damage to plant, 0=no damage to plant; for pest or weed control at 500 g/ha: Lolium perenne, post-emergence, 312 h, read-out: Control of weed species after post-emergence application, LOLPE
Summary of the method: as §1

[3] = test system: Echinochloa crus-galli (ECHCG); conditions: Application rate 500 g/Ha, evaluated after 13 days, 100=total damage to plant, 0=no damage to plant; for pest or weed control at 500 g/ha: Echinochloa crus-galli, post-emergence, 312 h, read-out: Control of weed species after post-emergence application, ECHCG
Summary of the method: as §1

[4] = test system: Amaranthus palmeri (AMAPA); conditions: Application rate 500 g/Ha, evaluated after 13 days, 100=total damage to plant, 0=no damage to plant; for pest or weed control at 500 g/ha: Amaranthus palmeri, post-emergence, 312 h, read-out: Control of weed species after post-emergence application, AMAPA
Summary of the method: as §1

[5] = test system: Chenopodium album (CHEAL); conditions: Application rate 500 g/Ha, evaluated after 13 days, 100=total damage to plant, 0=no damage to plant; for pest or weed control at 500 g/ha: Chenopodium album, post-emergence, 312 h, read-out: Control of weed species after post-emergence application, CHEAL
Summary of the method: as §1

Eleusine indica (ELEIN) = conditions: Application rate 500 g/Ha, evaluated after 13 days, 100=total damage to plant, 0=no damage to plant; for pest or weed control at 500 g/ha: Eleusine indica, post-emergence, 312 h, read-out: Control of weed species after post-emergence application, ELEIN
Summary of the method: as §1

Setaria faberi (SETFA) = conditions: Application rate 500 g/Ha, evaluated after 13 days, 100=total damage to plant, 0=no damage to plant; for pest or weed control at 500 g/ha: Setaria faberi, post-emergence, 312 h, read-out: Control of weed species after post-emergence application, SETFA
Summary of the method: as §1

[6] = test system: Euphorbia heterophylla (EPHHL); conditions: Application rate 500 g/Ha, evaluated after 13 days, 100=total damage to plant, 0=no damage to plant; for pest or weed control at 500 g/ha: Euphorbia heterophylla, post-emergence, 312 h, read-out: Control of weed species after post-emergence application, EPHHL
Summary of the method: as §1

| Compound | pest or weed control at 500 g/ha [1] [%] | pest or weed control at 500 g/ha [2] [%] | pest or weed control at 500 g/ha (Lolium perenne (LOLPE)) [%] | pest or weed control at 500 g/ha [3] [%] | pest or weed control at 500 g/ha [4] [%] | pest or weed control at 500 g/ha [5] [%] | pest or weed control at 500 g/ha (Eleusine indica (ELEIN)) [%] | pest or weed control at 500 g/ha (Setaria faberi (SETFA)) [%] | pest or weed control at 500 g/ha [6] [%] | Control of weed species after post-emergence application, DIGSA [1] | Control of weed species after post-emergence application, IPOHE [2] | Control of weed species after post-emergence application, LOLPE (Lolium perenne (LOLPE)) | Control of weed species after post-emergence application, ECHCG [3] | Control of weed species after post-emergence application, AMAPA [4] | Control of weed species after post-emergence application, CHEAL [5] | Control of weed species after post-emergence application, ELEIN (Eleusine indica (ELEIN)) | Control of weed species after post-emergence application, SETFA (Setaria faberi (SETFA)) | Control of weed species after post-emergence application, EPHHL [6] |
| --- | --- | --- | --- | --- | --- | --- | --- | --- | --- | --- | --- | --- | --- | --- | --- | --- | --- | --- |
| CNC(=O)c1cnc(-c2cc[n+](CCC(=O)[O-])nc2)nc1 [Compound A93] | 100 | 20 | 80 | 80 | 90 | 80 | 100 | 100 | 40 |  |  |  |  |  |  |  |  |  |
| COc1cc(C)nc(-c2cc[n+](CCS(=O)(=O)O)nc2)n1 [Compound A94] |  |  |  |  |  |  |  |  |  | 30 | 30 | 20 | 30 | 70 | 90 | 20 | 40 | 40 |
| Cc1cc(=O)[nH]c(-c2cc[n+](CCS(=O)(=O)[O-])nc2)n1 [Compound A95] | 40 | 30 | 20 | 50 | 30 | 40 | 30 | 50 | 40 |  |  |  |  |  |  |  |  |  |
| Cc1cnc(-c2cc[n+](CCC(=O)[O-])nc2)nc1C [Compound A96] | 40 | 40 | 60 | 70 | 70 | 20 | 40 | 70 | 90 |  |  |  |  |  |  |  |  |  |
| Cc1cnc(-c2cc[n+](CCS(=O)(=O)[O-])nc2)nc1C [Compound A97] | 90 | 30 | 70 | 90 | 90 | 20 | 90 | 90 | 70 |  |  |  |  |  |  |  |  |  |
| O=S(=O)([O-])CCC[n+]1ccc(-c2cnc(F)cn2)cn1 [Compound A98] | 10 | 30 | 0 | 20 | 40 | 20 | 20 | 20 | 40 |  |  |  |  |  |  |  |  |  |
| Cc1nc(-c2cc[n+](CCS(=O)(=O)[O-])nc2)ncc1Cl [Compound A99] | 40 | 30 | 20 | 50 | 80 | 30 | 80 | 50 | 90 |  |  |  |  |  |  |  |  |  |
| Cc1nc(-c2cc[n+](CCC(=O)[O-])nc2)ncc1Cl [Compound A100] | 40 | 20 | 10 | 70 | 60 | 60 | 60 | 20 | 90 |  |  |  |  |  |  |  |  |  |
| COc1ccnc(-c2cc[n+](CCC(=O)[O-])nc2)n1 [Compound A101] | 60 | 10 | 70 | 60 | 80 | 70 | 40 | 80 | 80 |  |  |  |  |  |  |  |  |  |
